Test results published in patent US20140315972A1, “RS)-2-(2-oxo-4-phenylpyrrolidin-1-yl)acetamide compound having modulatory activity with a commensurate effect, pharmaceutical substance (variants) and its application, composition (variants) thereof” (priority 2011, published 2014).
Marks after values point to notes of the source that are not given here.

How the values were obtained:
Stability during storage = type: physicochemical; settings: sterile 0.001-3% solutions with cyclodextrin or Tween, ampoules
Method: The resulting compositions are stable. The studies were conducted in accordance with regulatory requirements for determination when stored in natural conditions (in a dry, dark place at a temperature not exceeding 30° C.) and using the standard method of accelerated aging.
The crystalline powder of the Phenotropil substances is not volatile, has white, rarely white to slightly yellowish or slightly cream color, bitter taste (bitter taste that disappears in the mouth rather quickly after dissolution, leaving no unpleasant sensations). In the related products, the bitter taste persists. The Compounds are sparingly soluble in water and saline, moderately soluble in 96.0% alcohol and chloroform. Readily soluble in water and saline under heating, but the solutions are not stable during cooling and storage under normal conditions (not more than 2 hours, which is acceptable for the extemporaneous preparations and research), moderately soluble in 5.0% glucose solution, dissolve well in the presence of solubilizers and emulsifiers. Tween80 and cyclodextrins increase solubility in water, especially Tween80, while cyclodextrins have limitations by concentration. […]

rats [1] = assay: Retrograde amnesia of CRPA induced by electroshock and scopolamine, adult rats; type: in vivo
Description: Phenotropil has a pronounced mnemotropic and nootropic activity. The results of the study of the antiamnestic activity (classical technique in the equipment manufactured by Lafayette Instrument Co, USA) in the retrograde amnesia of the passive avoidance conditional reflex (CRPA) induced by maximal electroshock (MES) and scopolamine in male rats (180-250 g) are shown in Table 7. […] Taking into account the studies using the open field and cross maze tests, the nootropic action component of the modulatory drug not only may be more pronounced, but is broader in manifestation depending on the type of disorder or in unfamiliar situational conditions. The pronounced nootropic activity of Phenotropil (100, 200, 300 mg/kg) also manifests in rat pups of both sexes 30-35 days of age (Table 7.1) after scopolamine-induced CRPA amnesia.

mice [2] = assay: Toxic effect of ethanol (lateral position, lethal dose); type: in vivo; settings: 25.0-200 mg/kg
Description: The antitoxic, sobering and anticraving, activity, as well as the effect of Phenotropil in abstinence was studied on white outbred male rats (weighing 180-220 g) and male mice (weighing 18-24 g) in chronic alcoholism. […] Alcoholized rats after four months of alcoholism and treatment with Phenotropilom voluntarily give up intake of alcohol (anticraving activity) with free choice of water and alcohol (Table 11).

cAMP = cAMP level in functional dysmenorrhea patients; type: in vivo, human; settings: for cAMP level / cAMP level, change in % (vs background dysmenorrhea): human plasma, primary dysmenorrhoea, first phase of the cycle
Method: Investigation of the effect of Phenotropil in amenorrhea and functional dysmenorrhea was conducted on groups of patients aged 14-27 years. The first group (20-27 years) diagnosed with schizophrenia, was on the maintenance neuroleptic therapy and had menstrual cycle irregularities in the form of amenorrhea (for more than 6 months). Of those, 4 had amenorrhea of not established nature, observed also prior to the pronounced primary manifestation of mental disorder, 6 patients had amenorrhea that developed during treatment with neuroleptics. Phenotropil, tablets was administered in doses of 100 mg and 200 mg per day as part of a complex antipsychotic therapy as a corrector of psychogenic side effects of neuroleptics. The dose was selected based on the individual and clinical features of the patients. The duration of Phenotropil therapy was 3 months. Two groups (14-18 years) with functional dysmenorrhea and manifestations of pronounced spastic symptoms were studied. Duration of the Phenotropil monotherapy (50 and 100 mg per day) was one month followed by administration of the drug at one-week courses as a preventive agent. Patients with functional dysmenorrhea were investigated for cAMP level in comparison with the norm control group. The cAMP level was determined using the standard kits, by the method based on the competition with the labeled cyclic 3′,5-adenosine monophosphate in the level of binding with […].

rats [3] = assay: 14-day immobilization in antiorthostatic position (Ds), thymus, spleen, adrenal mass ratios Kt; type: in vivo; settings: Ds-conditions; for S/A: spleen/adrenals ratio (mg/100 g baseline body weight); for S/T: spleen/thymus ratio (mg/100 g baseline body weight); for T/A: thymus/adrenals ratio (mg/100 g baseline body weight)
mice [4] = assay: Conflict situation (tranquilizing effect); type: in vivo; settings: 300 mg/kg
Method: The tranquilizing effect of Phenotropil (300 mg/kg) was studied by the method of conflict situation and conflict of two reflexes (Vogel, 1971; Sanger et al., 1991; File, 1995; Molodavkin, Voronina, 1995), associated in this case with the desire to satisfy the motivation (drinking) and application of punishment (electric shock, received after each attempt to satisfy the motivation). In the created conflict situation, the animal is experiencing a strong negative stress. Tranquilizers reduce the level of anxiety and psychoemotional stress.

rats [5] = assay: Hypotensive activity in rats (cannula in carotid artery); type: in vivo; settings: adult rats; i.p. and intragastric 50-100 mg/kg; one hour after administration
Method: Study of the effect of Phenotropil on cerebral blood flow, systemic blood pressure (BP) and the nervous regulation of blood circulation was made on 6 anesthetized cats under general anesthesia (urethane+chloralose). Phenotropil was administered intravenously at a dose of 50 mg/kg with distilled water; the baseline state of each animal prior to drug administration served as control. Cerebral blood flow was recorded in the common carotid artery (CCA) by an electromagnetic meter. The nervous regulation of cerebral circulation was judged by the vasomotor pressor reflex (VPR). The results of the experiment show (Table 6.1) that the racemic compound causes a moderate increase in cerebral blood flow in anesthetized animals. The cerebrovascular effect is accompanied by vascular hypotension with manifestation of oppression of the vasomotor reflex. The biphasic behaviour of SBP is consistent with the pattern of the effect on TSIP under no abnormalities with stabilization of the normotonic state. At intraperitoneal and intragastric administration of Phenotropil (25-300 mg/kg) to white outbred adult rats of both sexes, hypotensive activity (by blood method through the cannula connected to the carotid artery) was manifested one hour after administration at doses of 50-100 mg/kg and was in average 13%±2.85, while with increasing doses this effect disappears. […]

In the case of `NC(=O)CN1CC(c2ccccc2)CC1=O` (racemic) [Compound 1, (RS)-2-(2-oxo-4-phenylpyrrolidine-1-yl)acetamide], the “storage stability of sterile solutions” value (Stability during storage) is reported as “at least 12 months”, the “Latent period of the first entry into the chamber at testing the preservation of CRPA, after 24 hours” value (“Latent period” for short) (rats [1]; ECS amnesia, 25 mg/kg) is reported as 65.6* seconds and the “Latent period” value (rats [1]; ECS amnesia, 50 mg/kg) is reported as 74.4* seconds. The “Latent period” value (rats [1]; ECS amnesia, 100 mg/kg) was 112.5* seconds, the “Latent period” value (rats [1]; scopolamine 1 mg/kg amnesia, 25 mg/kg) was 78.8* seconds and the “Latent period” value (rats [1]; scopolamine 1 mg/kg amnesia, 50 mg/kg) was 96.0* seconds. For the same molecule, the “Latent period” value (rats [1]; scopolamine 1 mg/kg amnesia, 100 mg/kg) was 125.3* seconds, the “toxic effect of ethanol (lateral position indicator and lethal dose)” value (mice [2]) was “reduced tenfold” and the “effect of course use on serum cAMP” value (cAMP; functional dysmenorrhoea, monotherapy 50 and 100 mg per day, 30 days) was “restored the functional norm of cAMP indicators”. The cAMP level (cAMP; dose 50 mg) was 14.35 ± 0.87 nmol/L, the “cAMP level, change in % (vs background dysmenorrhea)” value (cAMP; dose 50 mg) was −32% and the cAMP level (cAMP; dose 100 mg) was 12.77 ± 1.24 nmol/L. The “cAMP level, change in % (vs background dysmenorrhea)” value (cAMP; dose 100 mg) was −39%, the S/A (rats [3]; 25 mg/kg) was 7.6 ± 1.2 and the S/T (rats [3]; 25 mg/kg) was 2.2 ± 0.1. For the same molecule, the T/A (rats [3]; 25 mg/kg) was 5.5 ± 1.1, the S/A (rats [3]; 50 mg/kg) was 8.2 ± 1.2 and the S/T (rats [3]; 50 mg/kg) was 1.6 ± 0.1. The T/A (rats [3]; 50 mg/kg) was 6.6 ± 1.1, the S/A (rats [3]; 100 mg/kg) was 8.8 ± 1.2 and the S/T (rats [3]; 100 mg/kg) was 1.2 ± 0.2. For the same molecule, the T/A (rats [3]; 100 mg/kg) was 5.5 ± 1.1, the “reduction of amount of intakes for three minutes” value (mice [4]) was 74.4% and the “reduction of anxiety and emotional stress in the conflict situation vs control” value (mice [4]) was 291.0%. The “Number of water intakes for 3 min” value (mice [4]; mice) was 7.3 ± 3.9, the “The time between the first and second intake of water” value (mice [4]; mice) was 31.1 ± 3.4 s and the “hypotensive activity, average” value (rats [5]) was 13%±2.85.
